These results are taken from patent US20250304645A1, “Prodrugs of GLP-1 Polypeptide and Uses Thereof” (Novo Nordisk A/S, priority 2022, published 2025).

The data set in a line: Prodrug to drug conversion half-life in vitro in PBS at pH 7.4 and 37° C. (UPLC-UV-MS). The class given is physicochemical. As to conditions: prodrug to parent drug conversion, PBS pH 7.4, 37° C., first order T½. As for the experimental part: The assay was performed to investigate the conversion half-life of prodrug to drug of the prodrugs of the invention.
Peptide stock solutions were prepared by dissolving freeze-dried powder in PBS buffer to a target of 200 μM. PBS-buffer was Dulbecco's Phosphate Buffered Saline without CaCl2 and MgCl2, gibco 14190-094 adjusted to pH=7.4. The pH of the peptide stock solutions was adjusted to 7.4 with 0.02 M HCl or 0.02M NaOH. Samples were filled in Agilent HPLC vials with fixed insert. Vials were capped to prevent evaporation. The HPLC vials were incubated at 37° C. and samples were withdrawn at different time points over a period of 2 weeks, flash frozen at −80° C., and stored at −20° C. until analysis.
Sample analysis was carried out using UPLC coupled to UV detection at 215 nm and MS (UPLC-UV-MS). One μl of sample was injected on to a Waters Acquity UPLC with a flow-through-needle injection system and on to a Waters Acquity CSH C18 column (1*150 mm), with a particle size of 1.7 μm and held at 55° C. A flow-rate of 100 μl/min was delivered with a Binary solvent manager pump having 0.1% formic acid in water as solvent A and 0.1% formic acid in acetonitrile as solvent B. Gradient elution was carried out using 15-32% B from 0 to 4 min followed by 32 to 48% B from 4 to 54 min. […]

With `CC[C@H](C)[C@H](NC(=O)[C@H](Cc1ccccc1)NC(=O)[C@H](CCC(=O)O)NC(=O)[C@H](CCCCNC(=O)COCCOCCNC(=O)COCCOCCNC(=O)CC[C@H](NC(=O)CCCCCCCCCCCCCCCCC(=O)O)C(=O)O)NC(=O)[C@H](C)NC(=O)[C@H](C)NC(=O)[C@H](CCC(N)=O)NC(=O)CNC(=O)[C@H](CCC(=O)O)NC(=O)[C@H](CC(C)C)NC(=O)[C@H](Cc1ccc(O)cc1)NC(=O)[C@H](CO)NC(=O)[C@H](CO)NC(=O)[C@@H](NC(=O)[C@H](CC(=O)O)NC(=O)[C@H](CO)NC(=O)[C@@H](NC(=O)[C@H](Cc1ccccc1)NC(=O)[C@@H](NC(=O)CNC(=O)[C@H](CCC(=O)O)NC(=O)C(C)(C)NC(=O)[C@H](Cc1c[nH]cn1)NC(=O)[C@@H]1CSCN1C(=O)[C@@H](N)CCCCNC(=O)COCCOCCNC(=O)COCCOCCNC(=O)CC[C@H](NC(=O)CCCCCCCCCOc1cccc(C(=O)O)c1)C(=O)O)[C@@H](C)O)[C@@H](C)O)C(C)C)C(=O)N[C@@H](C)C(=O)N[C@@H](Cc1c[nH]c2ccccc12)C(=O)N[C@@H](CC(C)C)C(=O)N[C@H](C(=O)N[C@@H](CCCNC(=N)N)C(=O)NCC(=O)N[C@@H](CCCNC(=N)N)C(=O)NCC(=O)O)C(C)C` [Chem. 8, N{ε26}-[2-[2-[2-[[2-[2-[2-[[(4S)-4-carboxy-4-(17-carboxyheptadeca-noylamino)butanoyl]amino]ethoxy]ethoxy]acetyl]amino]ethoxy]ethoxy]acetyl]-N{ε}-[2-[2-[2-[[2-[2-[2-[[(4S)-4-carboxy-4-[10-(3-carboxyphenoxy)decanoylamino]butanoyl]amino]ethoxy]ethoxy]acetyl]amino]ethoxy]ethoxy]acetyl]Lys-Thz-[Aib8,Arg34]-GLP-1-(7-37)-peptide], the half-life (as a rule, how long it takes for the measured level to halve) (buffer) was 175 h.
Turning to “N{ε26}-[2-[2-[2-[[2-[2-[2-[[(4S)-4-carboxy-4-(17-carboxyheptadeca-noylamino)butanoyl]amino]ethoxy]ethoxy]acetyl]amino]ethoxy]ethoxy]acetyl]-N{ε}-[(2S)-2-[[(4S)-4-carboxy-4-(17-carboxyheptadecanoylamino)butanoyl]amino]-3-hydroxypropanoyl]Lys-Thz-[Aib8,Arg34]-GLP-1-(7-37)-peptide [Chem. 18]”, the Conversion half-life amounted to 168 h.
